Measured values published in the supplement of paper PMC11061612.

Columns and labels:
Assay in all cases: Bliss excess, mean over the matrix (fraction); higher = more synergy
[1] = test system: GP5d (Colorectal Carcinoma)
How it was run: (§1)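 Bliss excess equals the observed combination effect minus the expected value EA + EB − EA·EB, where EA and EB are the effects of each agent alone. Combination Emax is the second-highest inhibition within the matrix. Inhibition was scaled from CellTiter-Glo 2.0 luminescence, with 0 set by vehicle wells and 1 by blank wells, after 72 hours of two-drug dosing of cells plated in 1536-well plates.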

[2] = test system: NCI-H2342 (Lung Adenocarcinoma)
How it was run: as §1

[3] = test system: MFE-280 (Endometrial Carcinoma)
How it was run: as §1

LN-229 (Glioblastoma) = test system: LN-229 (Glioblastoma)
How it was run: as §1

[4] = test system: OAW-42 (Ovarian Carcinoma)
How it was run: as §1

IST-MES1 (Mesothelioma) = test system: IST-MES1 (Mesothelioma)
How it was run: as §1

SF268 (Low Grade Glioma) = test system: SF268 (Low Grade Glioma)
How it was run: as §1

[5] = test system: LK-2 (Squamous Cell Lung Carcinoma)
How it was run: as §1

[6] = test system: NCI-H446 (Small Cell Lung Carcinoma)
How it was run: as §1

[7] = test system: SHP-77 (Small Cell Lung Carcinoma)
How it was run: as §1

[8] = test system: PC-3_[JPC-3] (Lung Adenocarcinoma)
How it was run: as §1

[9] = test system: SK-PN-DW (Other Solid Carcinomas)
How it was run: as §1

A2058 (Melanoma) = test system: A2058 (Melanoma)
How it was run: as §1

[10] = test system: PANC-03-27 (Pancreatic Carcinoma)
How it was run: as §1

[11] = test system: FADU (Head and Neck Carcinoma)
How it was run: as §1

SF539 (Glioblastoma) = test system: SF539 (Glioblastoma)
How it was run: as §1

WM793B (Melanoma) = test system: WM793B (Melanoma)
How it was run: as §1

[12] = test system: RERF-LC-Sq1 (Squamous Cell Lung Carcinoma)
How it was run: as §1

[13] = test system: KE-37 (T-Lymphoblastic Leukemia)
How it was run: as §1

[14] = test system: MKN45 (Gastric Carcinoma)
How it was run: as §1

Row | Structure (SMILES) | Bliss excess [1] | Bliss excess [2] | Bliss excess [3] | Bliss excess (LN-229 (Glioblastoma)) | Bliss excess [4] | Bliss excess (IST-MES1 (Mesothelioma)) | Bliss excess (SF268 (Low Grade Glioma)) | Bliss excess [5] | Bliss excess [6] | Bliss excess [7] | Bliss excess [8] | Bliss excess [9] | Bliss excess (A2058 (Melanoma)) | Bliss excess [10] | Bliss excess [11] | Bliss excess (SF539 (Glioblastoma)) | Bliss excess (WM793B (Melanoma)) | Bliss excess [12] | Bliss excess [13] | Bliss excess [14]
1 | C[C@@H](c1ccc2nccn2c1)n1nnc2ncc(-c3cnn(C)c3)nc21 [Savolitinib] + Cc1c2c(nn1C)CSCc1cc(n(C)n1)CSc1cc(c3ccccc3c1)OCCCc1c(C(=O)O)n(C)c3c-2c(Cl)ccc13 [AZD5991] (first compound max 1 µM, 7x7, partner max 1 µM) | -0.0912 | 0.0288 | -0.052 | -0.0372 | -0.0474 | -0.0435 | -0.0595 | 0.007 | 0.0471 | -0.0662 | -0.0216 | -0.0656 | -0.0043 | -0.0541 | -0.0687 | -0.0337 | -0.0658 | -0.009 | -0.0335 | -0.0133
2 | Cn1cnc2c(F)c(Nc3ccc(Br)cc3Cl)c(C(=O)NOCCO)cc21 [Selumetinib] + C=CCn1c(=O)c2cnc(Nc3ccc(N4CCN(C)CC4)cc3)nc2n1-c1cccc(C(C)(C)O)n1 [AZD1775] (first compound max 10 µM, partner max 1 µM) | -0.0796 | -0.0366 | -0.0485 | -0.0115 | -0.0694 | -0.0955 | -0.125 | -0.0356 | -0.0441 | 0.0141 | -0.0332 | 0.0095 | -0.029 | -0.0164 | -0.0284 | -0.025 | 0.004 | -0.0617 | 0.0083 | -0.0765
3 | Cn1cnc2c(F)c(Nc3ccc(Br)cc3Cl)c(C(=O)NOCCO)cc21 [Selumetinib] + CC(C)n1c(=O)n(C)c2cnc3cc(F)c(-c4ccc(OCCCN5CCCCC5)nc4)cc3c21 [AZD1390] (first compound max 10 µM, 7x7, partner max 0.3 µM) | 0.0142 | -0.0489 | -0.0427 | -0.0563 | -0.0392 | -0.0382 | -0.0693 | 0.007 | -0.0469 | -0.0038 | -0.0445 | -0.0289 | -0.0155 | 0.01 | -0.004 | -0.0232 | -0.0211 | 0.0117 | 0.0255 | -0.0388
4 | Cn1cnc2c(F)c(Nc3ccc(Br)cc3Cl)c(C(=O)NOCCO)cc21 [Selumetinib] + CCN(CCO)CCCOc1ccc2c(Nc3cc(CC(=O)Nc4cccc(F)c4)[nH]n3)ncnc2c1 [AZD2811] (first compound max 10 µM, 7x7, partner max 1 µM) | -0.0153 | -0.0569 | -0.0767 | -0.0303 | -0.011 | -0.0718 | -0.027 | -0.0937 | -0.0069 | 0.0447 | -0.0748 | -0.0744 | 0.0945 | 0.0374 | -0.026 | -0.0193 | -0.0465 | -0.0041 | -0.0047 | 0.0107
5 | Cn1cnc2c(F)c(Nc3ccc(Br)cc3Cl)c(C(=O)NOCCO)cc21 [Selumetinib] + C[C@@H]1COCCN1C2=NC(=NC(=C2)C3(CC3)[S@](=N)(=O)C)C4=C5C=CNC5=NC=C4 [AZD6738] (first compound max 10 µM, 7x7, partner max 10 µM) | 0.0209 | -0.0577 | -0.0651 | 0.0078 | -0.0257 | -0.0374 | -0.0382 | 0.0613 | 0.0036 | 0.0421 | -0.0671 | -0.0011 | 0.059 | -0.0117 | 0.0102 | 0.0586 | -0.0447 | 0.0516 | 0.0087 | -0.0731
6 | CC(=O)Nc1cccc(-n2c(=O)n(C3CC3)c(=O)c3c(Nc4ccc(I)cc4F)n(C)c(=O)c(C)c32)c1 [Trametinib] + Cc1nc(-c2cn3c(n2)-c2ccc(-c4cnn(C(C)(C)C(N)=O)c4)cc2OCC3)n(C(C)C)n1 [Taselisib] (first compound max 1 µM, 7x7, partner max 10 µM) | -0.0186 | 0.0446 | 0.021 | 0.19 | 0.109 | 0.0469 | 0.0152 | 0.0821 | 0.0967 | 0.107 | 0.166 | -0.0286 | 0.104 | 0.156 | 0.213 | 0.177 | 0.0203 | 0.0906 | 0.0968 | -0.0862
7 | CC1(C)CCC(CN2CCN(c3ccc(C(=O)NS(=O)(=O)c4ccc(NCC5CCOCC5)c([N+](=O)[O-])c4)c(Oc4cnc5[nH]ccc5c4)c3)CC2)=C(c2ccc(Cl)cc2)C1 [Venetoclax] + C1CN(CCC1(C(=O)N[C@@H](CCO)C2=CC=C(C=C2)Cl)N)C3=NC=NC4=C3C=CN4 [Capivasertib] (first compound max 1 µM, 7x7, partner max 3 µM) | -0.0548 | -0.0359 | -0.0377 | -0.0394 | -0.0539 | -0.033 | -0.0095 | -0.0122 | -0.0257 | -0.0797 | -0.0399 | -0.0892 | -0.0333 | -0.0881 | -0.0382 | -0.0189 | -0.029 | -0.0391 | 0.012 | -0.0205
8 | CC1(C)CCC(CN2CCN(c3ccc(C(=O)NS(=O)(=O)c4ccc(NCC5CCOCC5)c([N+](=O)[O-])c4)c(Oc4cnc5[nH]ccc5c4)c3)CC2)=C(c2ccc(Cl)cc2)C1 [Venetoclax] + C=CCn1c(=O)c2cnc(Nc3ccc(N4CCN(C)CC4)cc3)nc2n1-c1cccc(C(C)(C)O)n1 [AZD1775] (first compound max 1 µM, partner max 1 µM) | -0.0561 | -0.0184 | 0.0767 | -0.0083 | -0.0283 | -0.0281 | -0.0218 | 0.012 | -0.029 | 0.0141 | -0.0736 | 0.0457 | -0.0886 | 0.035 | -0.0282 | -0.0234 | 0.0101 | -0.0437 | 0.0083 | -0.0402
9 | CC1(C)CCC(CN2CCN(c3ccc(C(=O)NS(=O)(=O)c4ccc(NCC5CCOCC5)c([N+](=O)[O-])c4)c(Oc4cnc5[nH]ccc5c4)c3)CC2)=C(c2ccc(Cl)cc2)C1 [Venetoclax] + CCN(CCO)CCCOc1ccc2c(Nc3cc(CC(=O)Nc4cccc(F)c4)[nH]n3)ncnc2c1 [AZD2811] (first compound max 1 µM, 7x7, partner max 1 µM) | -0.0235 | -0.019 | 0.0557 | -0.014 | -0.0059 | -0.0327 | 0.0342 | 0.0197 | -0.0077 | 0.0432 | -0.095 | -0.0703 | 0.0655 | -0.028 | 0.0341 | 0.0468 | 0.0206 | 0.0197 | -0.0266 | -0.066
10 | CC1(C)CCC(CN2CCN(c3ccc(C(=O)NS(=O)(=O)c4ccc(NCC5CCOCC5)c([N+](=O)[O-])c4)c(Oc4cnc5[nH]ccc5c4)c3)CC2)=C(c2ccc(Cl)cc2)C1 [Venetoclax] + CN(C)CCCOc1ccc(-c2ccc3ncc4c(c3c2)n(C2CCOCC2)c(=O)n4C)cn1 [AZD0156] (first compound max 1 µM, 7x7, partner max 1 µM) | -0.0274 | -0.0546 | 0.0338 | -0.007 | -0.0402 | -0.0382 | 0.0022 | 0.02 | 0.0143 | 0.0254 | -0.103 | -0.0437 | 0.0014 | -0.0876 | 0.0088 | 0.0126 | -0.0499 | -0.0401 | -0.0036 | -0.095
11 | CC1(C)CCC(CN2CCN(c3ccc(C(=O)NS(=O)(=O)c4ccc(NCC5CCOCC5)c([N+](=O)[O-])c4)c(Oc4cnc5[nH]ccc5c4)c3)CC2)=C(c2ccc(Cl)cc2)C1 [Venetoclax] + COc1cc(Nc2ncc3c(n2)-c2ccc(Cl)cc2C(c2c(F)cccc2OC)=NC3)ccc1C(=O)O [Alisertib] (first compound max 1 µM, 7x7, partner max 10 µM) | 0.0453 | -0.0792 | -0.0266 | -0.041 | -0.079 | -0.0479 | 0.0151 | -0.035 | -0.0775 | 0.241 | -0.0502 | -0.127 | -0.0871 | -0.0236 | 0.0252 | 0.0396 | -0.0223 | -0.0289 | -0.0545 | -0.0645
12 | CC1(C)CCC(CN2CCN(c3ccc(C(=O)NS(=O)(=O)c4ccc(NCC5CCOCC5)c([N+](=O)[O-])c4)c(Oc4cnc5[nH]ccc5c4)c3)CC2)=C(c2ccc(Cl)cc2)C1 [Venetoclax] + C[C@@H]1COCCN1C2=NC(=NC(=C2)C3(CC3)[S@](=N)(=O)C)C4=C5C=CNC5=NC=C4 [AZD6738] (first compound max 1 µM, 7x7, partner max 10 µM) | -0.0657 | -0.0209 | -0.0486 | -0.0601 | -0.016 | -0.0101 | -0.0723 | -0.0205 | -0.0536 | -0.007 | -0.0438 | -0.0045 | -0.0008 | -0.0556 | 0.0467 | -0.0339 | -0.0044 | -0.0476 | 0.0293 | -0.0526
13 | CC1(C)CCC(CN2CCN(c3ccc(C(=O)NS(=O)(=O)c4ccc(NCC5CCOCC5)c([N+](=O)[O-])c4)c(Oc4cnc5[nH]ccc5c4)c3)CC2)=C(c2ccc(Cl)cc2)C1 [Venetoclax] + C[C@@H](Nc1cc(F)cc(F)c1)c1cc(C(=O)N(C)C)cc2c(=O)cc(N3CCOCC3)oc12 [AZD8186] (first compound max 1 µM, 7x7, partner max 3 µM) | -0.0188 | -0.0643 | -0.0525 | -0.0267 | -0.047 | -0.0423 | -0.0353 | -0.0234 | 0.135 | 0.0205 | -0.0326 | -0.0038 | -0.0031 | -0.0415 | -0.0291 | -0.0062 | -0.016 | -0.0242 | 0.0385 | -0.057
14 | CC1(C)CCC(CN2CCN(c3ccc(C(=O)NS(=O)(=O)c4ccc(NCC5CCOCC5)c([N+](=O)[O-])c4)c(Oc4cnc5[nH]ccc5c4)c3)CC2)=C(c2ccc(Cl)cc2)C1 [Venetoclax] + Cc1cc2ncnn2cc1Nc1ncc2c(n1)n(C1CCOCC1)c(=O)n2C [AZD7648] (first compound max 1 µM, 7x7, partner max 10 µM) | -0.0119 | -0.0473 | -0.0773 | -0.0174 | -0.0381 | -0.0284 | -0.0146 | 0.0102 | -0.0181 | -0.0088 | -0.0445 | -0.054 | 0.007 | -0.043 | -0.0241 | 0.0069 | 0.0156 | -0.0268 | 0.0325 | -0.0576
